# Measured values from patent US20250326785A1, “SODIUM SALT AND ETHANOLAMINE SALT OF 23-HYDROXYTORMENTIC ACID” (HUYABIO International, LLC, priority 2024, published 2025).
# Legend:
# [1] = Solubility in water (temperature dependence); type: physicochemical
# Experimental: Sodium salt of Pattern 5 was prepared using inverse solubility, with dissolution of HBI-3808 free acid in water at low temperature, and heating to reach super saturation, followed by anti-solvent addition. The solids isolated from this process were consistent with sodium salt of pattern 15, which can be converted to sodium salt of pattern 5 via drying under vacuum with exposure to elevated humidity (and the conversion proceeds via sodium salt of pattern 2 as an intermediate).
# [2] = test system: VEGF; experiment: VEGF enrichment and angiogenesis induction by HBI-3808 conditioned media/supernatant; type: cell-based
# [3] = test system: Adult rats (Sprague Dawley) with MI by LAD ligation; experiment: Rat myocardial infarction model: cardiac function by echocardiography; type: in vivo
# Source text: (§1) Animal Model and Myocardial Infarction: Adult rats (Sprague Dawley (SD), body weight, -250 g) were used to generate a model with MI by LAD ligation of the heart as described in the previous study (Chongyu Zhang, Meng-Hsuan Hsieh, Song-Yi Wu, Shu-Hong Li, Jun Wu, Shi-Ming Liu, Hao-Ji Wei, Richard D. Weisel, Hsing-Wen Sung, Ren-Ke Li, “A self-doping conductive polymer hydrogel that can restore electrical impulse propagation at myocardial infarct to prevent cardiac arrhythmia and preserve ventricular function,” Biomaterials, Volume 231, 2020, 119672, ISSN 0142-9612). In brief, each rat was pre-medicated with 5% isoflurane in a chamber.
# The heart was then exposed through a left anterolateral thoracotomy incision. […] Sham animals was treated identically except that the suture was passed through the myocardium beneath the LAD without ligation. The incision was then closed in layers using 3-0 Vicryl suture and 3-0 silk for the skin. Post-surgery treatment followed per UHN ARC requirement with antibiotics (Duplocillin LA, 15,000 IU/kg, I.M.) and analgesics (Buprenorphrine, 0.03 mg/Kg, SC), and the animals recovered from anesthesia in a warmed environment, under continuous monitoring and care for 1-2 hours.
# (§2) The selected rats having similar FS were randomly divided into 6 groups: (1) Negative control group (treated with 40% SBCD); (2) Positive control group (with HBI-3802, 2 mg/kg /day); (3) Dose 1 (HBI-3808 2 mg/kg/day); (4) Dose 2 (HBI-3808 0.64 mg/kg day); (5) Dose 3 (HBI-3808 0.2 mg/kg/day); and (6) Sham control (No myocardial infarction and treated with 40% SBCD).
# Treatments: The rats were treated by gastric gavage daily starting 6 days after MI for 2 weeks (Turner PV, Vaughn E, Sunohara-Neilson J, Ovari J, Leri F, “Oral gavage in rats: animal welfare evaluation,” J. Am. Assoc. Lab. Anim. Sci., 2012 Jan; 51(1): pp. 25-30. PMID: 22330864; PMCID: PMC3276962) as described in Table 18. The same volume of vehicle (1 mL/rat/day) was given to the rats in sham control group. Ten rats were studied in each group (N=10/group). The schematic plan is depicted in FIG. 35.
# Oral Treatment: Six days after permanent LAD ligation, the selected rats received the first daily treatment. HBI-3808 (at 1 of the 3 doses) or 3802 at 2 mg/kg/day (1 ml/rat/day) delivered by gastric gavage daily for 14 days (2). 40% SB-CD alone (1 ml/rat/day) was similarly administered to rats in the control and sham groups.
# Measurement of Cardiac Function: Cardiac function was evaluated by echocardiography prior to LAD ligation, prior to treatment (6 days post myocardial infarction), and at 7- and 21-days post first treatment (13 and 27 days post myocardial infarction). The end-point cardiac function was also evaluated using a pressure-volume catheter on Day 21 after first treatment (27 days post myocardial infarction).
# Echocardiography: Each rat was pre-medicated with isoflurane in a chamber, and anesthesia was maintained during measurement with 2.5% isoflurane delivered using a nose cone. Echocardiographic examinations were performed using a GE Vivid-7 System with a 10S transducer. Depth was set at 2 cm. Short-axis views were obtained using the parasternal approach.
# Left ventricular (LV) dimensions [end-diastolic dimension (LVEDD) and end-systolic dimension (LVESD)] from M mode at short axis views of the mid-level LV. Fractional shortening (% FS) was calculated using the equation: [(LVEDD−LVESD)/LVEDD]×100. Ejection fraction (% EF) was calculated using the equation: [(LVEDD^3−LVESD^3)/LVEDD^3]×100.
# [4] = test system: Adult rats (Sprague Dawley) with MI by LAD ligation; experiment: Rat myocardial infarction model: morphological studies (scar area and thickness, computed planimetry); type: in vivo; conditions: for scar areas: p<0.05 and 0.01 respectively
# Source text: as §1, §2
# Morphological Studies: After cardiac functional measurements, the animals were euthanized. The hearts were rapidly excised, fixed with 10% formaldehyde for 7 days, sliced into 2 mm thick slices, and photographed.
# Cross-sectional areas of the left ventricular free wall (LVFW) and scar tissue were measured using computed planimetry. Surface areas of the epicardial LVFW and scar tissue were measured as the sum of the epicardial length multiplied by the slice thickness (2 mm). The surface area percentage of scar tissue in the LVFW was calculated as follows: [(epicardial scar area)/(epicardial LVFW area)×100]. The thickness of scar area was presented as an average of wall thickness measured at the middle and at each edge of the scar from the slice having the thinnest scar.
# [5] = 0.64 mg/kg/day, compared to 0.2 mg/kg HBI-3808, p<0.02
# [6] = 2 mg/kg/day, 21 days after treatment, p<0.01
# [7] = 0.2 mg/kg/day, control vs treated
# [8] = 0.64 mg/kg/day, control vs treated
smiles,measurement,setting,value
"CC1CCC2(C(=O)[O-])CCC3(C)C(=CCC4C5(C)CC(O)C(O)C(C)(CO)C5CCC43C)C2C1(C)O.[Na+] (stereo not drawn) [HBI-3808 sodium salt of Pattern 5, sodium salt of 23-hydroxytormentic acid]",solubility in water versus temperature,[1],inverse solubility in water
"C[C@@H]1CC[C@]2(C(=O)O)CC[C@]3(C)C(=CCC4[C@@]5(C)C[C@@H](O)[C@H](O)[C@@](C)(CO)C5CC[C@]43C)C2[C@]1(C)O (stereo partly drawn) [HBI-3808, 23-hydroxytormentic acid]",VEGF in media harvested from treated CMs,[2],enriched in VEGF
same,angiogenesis in supernatant of CM cell suspensions,[2],induces angiogenesis
same,difference of cardiac function (EF) Days 27 vs 6 post infarction,[3]; 0.16 mg of HBI-3808,showed improvement in cardiac function compared with Day 6
same,difference of cardiac function (EF) Days 27 vs 6 post infarction,[3]; 0.2 mg/kg/day,prevented further deterioration of cardiac dysfunction
same,Left ventricular end systolic dimension (LVESD),"[3]; 0.2 mg/kg/day, vs control at 21 days after treatment, p<0.01",smaller LVESD compared with control group
same,Ejection fraction (EF) / cardiac function,"[3]; 0.2 mg/kg/day, vs control over 21 days, p<0.01",better cardiac function than the control group
same,Fractional shortening (FS) / cardiac function,"[3]; 0.2 mg/kg/day, vs control, p<0.01",better function compared with the control group
same,systolic dilation between Day 6 and Day 21,[3]; 0.64 mg/kg/day,reversal in systolic dilation
same,Ejection fraction (EF),[3]; [5],improved EF
same,Fractional shortening (FS) / cardiac function,[3]; [5],improved cardiac function
same,diastolic dilation between Day 6 and 21,[3]; 2 mg/kg/day,no diastolic dilation
same,difference of cardiac function (EF) Days 27 vs 6 post infarction,[3]; 2 mg/kg/day,"improvement in cardiac function compared with Day 6, which was significantly illustrated"
same,efficacy compared with HBI-3802,[3]; 2 mg/kg/day,greater efficacy compared with HBI-3802
same,systolic dilation between Day 6 and Day 21,[3]; 2 mg/kg/day,reversal in systolic dilation
same,Ejection fraction (EF) after treatment,"[3]; 2 mg/kg/day gastric gavage 14 days from day 6 post MI, vs 0.64 and 0.2 mg/kg HBI-3808 and control",increased significantly
same,cardiac function (conclusion),[3]; 2 mg/kg/day oral,improved both diastolic and systolic function
same,cardiac function (EF) compared with 2 mg/kg HBI-3802 group,[3]; [6],improvement in cardiac function
same,cardiac function (FS) compared with 2 mg/kg HBI-3802 group,[3]; [6],improvement in cardiac function
same,Left ventricular end systolic dimension (LVESD),"[3]; 2 mg/kg/day, vs 2 mg/kg HBI-3802, 0.64 and 0.2 mg/kg HBI-3808 and control, p<0.01",smaller
same,Left ventricular end diastolic dimension (LVEDD),"[3]; 2 mg/kg/day, vs 0.64, 0.2 mg/kg and control groups, p<0.01",smaller
same,Fractional shortening (FS),"[3]; 2 mg/kg/day, vs 0.64 and 0.2 mg/kg HBI-3808 and control",increased FS significantly
same,improvement of cardiac function (conclusion),[3]; 0.64 or 0.2 mg/kg/day,lower-magnitude improvement of cardiac function
same,dose response of cardiac function restoration,"[3]; 2, 0.64, 0.2 mg/kg/day",had a dose response
same,scar thickness,[4]; [7],thinner in the control group
same,scar areas,[4]; [7],larger in the control group
same,scar thickness,[4]; [8],thinner in the control group
same,scar areas,[4]; [8],larger in the control group
same,scar thickness,"[4]; 2 mg/kg/day, 21 days after first treatment",thinner in the control group
same,scar (infarct) areas,"[4]; 2 mg/kg/day, 21 days after first treatment, p<0.01",smaller infarct areas than the 2 mg/kg HBI-3802 group
